Data on seven compounds can be found in PubChem BioAssay (NCI).

What all share (test): DTP human tumour cell line panel, 48 h
The subject of assay [1] is 786-0 renal.
Assay [2] deals with K-562 leukemia.
In assay [3] the test system is MALME-3M melanoma.
For assay [4], the system named is MCF7 breast.
Assay [5] deals with MDA-MB-435.
Assay [6] deals with NCI-H23 lung.
Assay [7] concerns NCI-H460 lung.
In assay [8] the test system is OVCAR-8 ovarian.
In assay [9] the test system is RXF 393 renal.
Assay [10] has as its system UACC-257 melanoma.

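Briefly, cells in 96-well plates were exposed to five compound concentrations for 48 h, and endpoints were estimated by linear interpolation. Here, GI50 denotes the concentration required for 50% inhibition of growth. TGI: concentration producing complete growth inhibition.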

Consider `COc1ncnc2c(-c3ccccc3)cn(COCc3ccccc3)c12`, for which the GI50 (commonly the concentration giving 50% growth inhibition) is 4.55 µM in assay [1]; 3.32 µM in [2]; 2.52 µM in assay [3]; 2.53 µM in [4]; 2 µM in [5]; 3.02 µM in assay [6]. Also, the GI50 in assay [7] is 3.54 µM; in assay [8], 3.02 µM; in [9], 2.5 µM; in [10], 2.74 µM. The TGI (as a rule, the concentration at which net growth stops) was more than 100 µM in assay [1]; more than 100 µM in assay [2]; 7.69 µM in assay [3]; 9.32 µM in assay [4]; 6.13 µM in [5]; more than 100 µM in assay [6]. In addition, the TGI is 23 µM in assay [7], 11.7 µM in [8], 7.71 µM in assay [9] and 9.31 µM in [10].
With `CN(CCO)CC[C@H](CSc1ccccc1)Nc1ccc(S(=O)(=O)NC(=O)c2ccc(N3CCC([C@@H](O)c4ccccc4-c4ccc(Cl)cc4)CC3)cc2)cc1S(=O)(=O)C(F)(F)F`, the GI50 in [1] was 3.62 µM; in assay [2], 3.4 µM; in assay [3] it was 2.48 µM; in [4] it was 2.97 µM; in assay [5], 2.31 µM; in assay [6] it was 17.7 µM. Further, the GI50 in [7] was 4.74 µM; in [8], 11.5 µM; in assay [9] it was 0.311 µM; in assay [10], 4.85 µM. Further, the TGI in [1] was 10.1 µM; in assay [2], more than 100 µM; in [3], 8.55 µM; in [4] it was 12.2 µM; in assay [5], 6.51 µM; in assay [6] it was more than 100 µM. Moreover, the TGI in [7] is 19.9 µM; in [8], more than 100 µM; in assay [9] it was 1.54 µM; in assay [10], 30.6 µM.
On to `O=C1C(Cl)=C(Nc2cccc(Cl)c2)C(=O)N1Cc1ccc(Cl)cc1`, for which the GI50 in assay [1] was 0.186 µM; in [2], 0.858 µM; in [3], 0.137 µM; in [4], 0.499 µM; in [5] it was 0.396 µM; in assay [6], 0.378 µM. Also, the GI50 in [7] is 0.538 µM; in [8] it was 0.833 µM; in assay [9], 0.778 µM; in [10], 6.39 µM. Besides, the TGI is 5.48 µM in assay [1]; more than 94.1 µM in [2]; 2.84 µM in assay [3]; 13.6 µM in assay [4]; 2.91 µM in assay [5]; 2.12 µM in assay [6]. The TGI in [7] was 15.7 µM; in [8], 18.5 µM; in assay [9], 22.6 µM; in [10], 28.2 µM.
Turning to `C[C@H](NC(=O)[C@@H](C)N)[C@H](Oc1ccc2c(cnn2-c2ccc(F)cc2)c1)c1ccc2c(c1)OCCO2`, the GI50 was 3.77 µM in assay [1]; 1.98 µM in assay [2]; 1.5 µM in [3]; 1.43 µM in [4]; 1.61 µM in assay [5]; 3.93 µM in [6]. The GI50 in assay [7] was 1.56 µM; in [8], 3.25 µM; in assay [9], 3.58 µM; in [10], 1.94 µM. Also, the TGI stood at 14.3 µM in [1]; 4.7 µM in assay [2]; 3.09 µM in [3]; 3.71 µM in assay [4]; 3.24 µM in assay [5]; 15.6 µM in assay [6]. The TGI in [7] was determined as 3.15 µM; in assay [8], 14 µM; in [9] it was 11.2 µM; in [10], 3.61 µM.
Take `COc1ccc(-c2nn(-c3cccc(Cl)c3)cc2-c2cc(-c3cccs3)[nH]c(=S)n2)cc1`: the GI50 in assay [1] is 4.18 µM; in assay [2], 2.91 µM; in assay [3], 3.49 µM; in [4] it was 3.02 µM; in assay [5], 3.13 µM; in assay [6], 3.43 µM. Also, the GI50 was 3.01 µM in [7], 3.15 µM in assay [8], 3.76 µM in assay [9] and 3.06 µM in [10]. The TGI in assay [1] is more than 100 µM; in assay [2], more than 100 µM; in [3], 15.8 µM; in [4], 33.4 µM; in [5], 19 µM; in [6] it was 16.2 µM. For the same compound, the concentration for total growth inhibition (TGI) was 11 µM in assay [7], more than 100 µM in assay [8], 19.5 µM in assay [9] and 18 µM in assay [10].
As for `CCOC(=O)N1CCN(/[N+]([O-])=N/Oc2ccc([N+](=O)[O-])cc2[N+](=O)[O-])CC1`, the GI50 in [1] was 0.322 µM; in assay [2], 0.153 µM; in assay [3] it was 1.59 µM; in assay [4], 0.365 µM; in assay [5] it was 0.315 µM; in assay [6], 1.82 µM. The GI50 in [7] is 4.41 µM; in assay [8], 3.49 µM; in assay [9] it was 1.95 µM; in [10] it was 2.27 µM. Further, the TGI in [1] turned out to be 1.64 µM; in [2], 3.72 µM; in [3] it was 4.05 µM; in assay [4] it was 8.16 µM; in [5], 2.98 µM; in [6], 3.69 µM. The TGI came to 18 µM in [7], 12.9 µM in assay [8], 5.9 µM in [9] and 7 µM in assay [10].
Take `O=C1C(Cl)=C(Nc2cccc(F)c2)C(=O)N1Cc1ccc(Cl)cc1`: the GI50 in assay [1] was 0.305 µM; in assay [2] it was 0.206 µM; in [3], 1.42 µM; in assay [4] it was 1.06 µM; in assay [5], 0.665 µM; in assay [6] it was 0.832 µM. The GI50 was 1.08 µM in [7], 0.759 µM in assay [8], 0.39 µM in assay [9] and 3.95 µM in assay [10]. The TGI was 3.98 µM in [1]; more than 32.1 µM in assay [2]; 10.8 µM in assay [3]; 7.91 µM in [4]; 2.3 µM in assay [5]; 14.4 µM in assay [6]. In addition, the TGI in [8] turned out to be 8.83 µM; in [9] it was 4.91 µM; in [10] it was 20.8 µM.
